The source of these data is PMC7292393 (PLoS ONE, 2020).

As usually defined, the ΔTm is the shift of the melting midpoint relative to a reference.

Several values for one entry are separate records, joined by “and”; a condition that tells them apart may be missing. Equal values may be shown once. Entries after “also recorded” stand apart in the source; their conditions may differ. Read-outs that look alike come from different tables or passages of the source.

Assay [1] addresses T1, sumoylation of HSF1 by SUMO1 (Homo sapiens, UniProt P63165).
T1 construct: purchased Active Motif 40120; host or cells: HSF1 substrate made in house in E. coli BL21 Rosetta (DE3)
Briefly: In vitro sumoylation (SUMOlink SUMO-1 Kit), Western blot. Type of assay: biochemical. As to conditions: 300 μM fisetin, 30°C for 3 hr. The source says:
(§1) To this end, we performed in vitro sumoylation experiments in which the cellular sumoylation reaction was reconstituted using purified human SUMO1, E1 activating enzyme, E2 conjugating enzyme, and two putative protein substrates (human tumor suppressor p53 and human transcription factor HSF1). E1 activating enzyme functions by transferring active SUMO1 protein to the E2 conjugating enzyme Ubc9, which in turn attaches SUMO1 onto target protein substrates. Both p53 and HSF1 proteins are linked to sumoylation as well as to cancer pathways.
(§2) Proteins were separated by SDS-PAGE using 4–20% or 7.5% Mini-PROTEAN TGX Precast Protein Gels (Bio-Rad, Hercules, CA) followed by detection with Bio-Safe Coomassie Stain (Bio-Rad). For Western immunoblotting experiments, proteins in SDS-PAGE gels were transferred onto a PVDF membrane at 4°C using Mini Trans-Blot Cell (Bio-Rad), blocked with 5% nonfat milk for 1 hr at room T or overnight at 4°C and incubated with the following primary antibodies at indicated dilutions for 1 hr at room T: 1:10,000 HSF1 polyclonal antibody (Enzo Life Sciences ADI-SPA-901-F; Lausen, Switzerland), 1:4000 p53 rabbit antibody (SUMOlink SUMO-1 Kit), 1:5000 SUMO-1 rabbit antibody (SUMOlink SUMO-1 Kit). Secondary antibody incubation was performed for 1 hr at room T using 1:10,000 goat anti-rabbit IgG polyclonal antibody (Enzo Life Sciences, ADI-SAB-300). […]
(A western blot detects proteins with antibodies after separation by electrophoresis.)

For assay [2], the target named is T2, sumoylation of tumor suppressor p53 by SUMO1 (Homo sapiens, UniProt P63165).
T2 construct: purchased Active Motif 40120
The assay is described as above. Type of assay: biochemical. The note with it: 300 μM fisetin, 30°C for 3 hr.
From the text: as §1, §2

Assay [3] addresses T3, bovine ubiquitin (Bos taurus, UniProt P0CG53).
T3 construct: native bovine ubiquitin (U6253); purchased Sigma-Aldrich U6253
In words: SPR binding to ubiquitin surface. The note with it: Fig 2J. Here is the method: All injections were performed in a Biacore T200 (GE Healthcare, Chicago, IL) at a flow rate of 20 μl/min in running buffer (20 mM Hepes (pH 7.4), 150 mM NaCl, 5 mM MgCl2, 0.0005% Tween 20) at 25°C. CMD200 and HC1500 sensor chips (Zantec Bioanalytics, Duesseldorf, Germany) were used for the primary and secondary SPR screens and for obtaining SPR sensograms shown in Fig 2I and 2J, respectively. SUMO1 surface in CMD-200 sensor chip and HC1500 sensor chip were generated with immobilization levels 10887 and 19639 resonance units (RU), respectively. Ubiquitin surface in HC1500 sensor chip was generated with 6106 RU. Human SUMO1 and bovine ubiquitin biosensors were prepared by standard amine coupling chemistry as follows: An equal volume of 0.1 M N-hydroxysuccinimide (NHS) and 0.4 M ethyl(dimethylaminopropyl) carbodiimide was injected for 7 min at 5 μl/min over a single flow cell. Following this step, human SUMO1 or bovine ubiquitin (100 μg/ml in pH 4.5 acetate buffer) was injected for 15 min, immediately followed by a 7 min injection of 1M ethanolamine (pH 9). […] RUmax was calculated as 8320/MW ratio, where 8320 is AU of human SUMO1 immobilized onto the chip and MW ratio is the ratio of MW (Da) of SUMO1 to flavonoid. […]
(In general: SPR reads the build-up and loss of mass on a sensor chip optically.)

The target of assay [4] is T4, human SUMO1 (Homo sapiens, UniProt P63165).
T4 construct: encoding amino acids 1–97 of mature human SUMO1; host or cells: E. coli BL21 Rosetta (DE3)
Briefly: SPR secondary screen / dose-dependent binding. The arrangement: key to SPR Screens 2°: ✓: dose-dependent saturation kinetics; ×: no indication of saturation kinetics.

Assay [5] deals with T4, human SUMO1. Briefly: Surface plasmon resonance (SPR) primary screen.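 Also: recombinant human SUMO1 amine-coupled to a sensor chip, blank activated and quenched reference flow cell, flavonoids injected 2 min then 1 min dissociation.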 The format is binding.
Assay [6] has as its target T4, human SUMO1. In words: Fluorescence quenching of fisetin. Type of assay: binding. As to conditions: 0.5 μM fisetin, emission 511.5 nm, corrected for dilution. As to the method:
(§3) The spectrum between 390–600 nm was measured with a PerkinElmer LS-55 fluorescence spectrometer. […] Excitation and emission slit wavelengths were 5 and 10 nm, respectively, with scan speed of 500 nm/min. […] Values were corrected for dilution as follows: Relative fluorescence values were calculated by subtracting fluorescence quenching observed upon addition of buffer alone.

The target in assay [7] is T3, bovine ubiquitin. In words: Fluorescence quenching of fisetin. The format is binding. The note with it: 0.5 μM fisetin, corrected for dilution. Here is the method:
as §3

The target of assay [8] is T4, human SUMO1. In words: Differential scanning fluorimetry (DSF) thermal shift. The format is binding.

T4 sequence (P63165 1-97): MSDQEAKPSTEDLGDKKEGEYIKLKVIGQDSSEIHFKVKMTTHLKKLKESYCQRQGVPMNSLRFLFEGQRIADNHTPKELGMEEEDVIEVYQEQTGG
T2 sequence (P63165 1-97 limits assumed): as the sequence (P63165 1-97) above
T1 sequence (P63165 1-97 limits assumed): as the sequence (P63165 1-97) above

As for `O=c1c(O)c(-c2ccc(O)c(O)c2)oc2cc(O)ccc12` [Fisetin, 3,3',4',7-tetrahydroxyflavone], the “sumoylation of HSF1 in vitro” value in assay [1] is given as “failed to alter sumoylation”. Besides, in assay [2], the “sumoylation of p53 in vitro” value is listed as “no SUMO conjugates of p53 were detected; also recorded: completely inhibits sumoylation”. Besides, the “SPR binding to bovine ubiquitin” value in assay [3] was “failed to bind to bovine ubiquitin”; in assay [3] (listed as fisetin), “no appreciable binding”. The “saturation binding in SPR secondary screen” value in assay [4] (Fig 2A-H) is recorded as “exhibited binding that approached saturation”. Also, the Kd in assay [4] (fisetin ~12 to 250 μM, Fig 2I, average of six replicates, read-out: Kd (SPR, extended range of concentrations)) is 228 µM and ~228 µM; in assay [4] (one-site hyperbola fit, 31.25-500 μM flavonoid, Fig 2A-C, read-out: Kd (SPR secondary screen)) it was 124 µM and ~124 µM; in assay [4] (range over the two experiments, Fig 2A and 2I, read-out: estimated Kd ranging (SPR)) it was 124 to 228 µM. For the same compound, the “SPR Screens 2°” value in assay [4] (five concentrations 31.25-500 μM) is on record as “✓”. In addition, in assay [5] (500 μM flavonoid in DMSO, cut-off of %RUmax of ~15), the “SPR Screens 1°” value is listed as “✓ (%RUmax with binding activity above cut-off)”. The “interaction in SPR primary screen” value in assay [5] (500 μM, %RUmax above threshold of ~15%) is reported as “interacted with SUMO1 in the primary screen”. The “%RUmax” value in assay [5] (SPR primary screen, 500 μM flavonoid in DMSO, (Mean RU/RUmax)*100) is reported as 18.9%. Moreover, in assay [6], the “quenching of fisetin fluorescence by SUMO1” value is listed as “Saturable binding was observed”. Moreover, in assay [7], the “quenching of fisetin fluorescence by ubiquitin” value is “only marginal quenching”. Besides, the thermal shift (ΔTm) at 300 µM in assay [8] is below 2 °C. The “effect on DSF thermogram / thermal stability of SUMO1” value in assay [8] (2 μM SUMO1, 300 μM flavonoid) is listed as “cause unfolding of human SUMO1; also recorded: unfolding of the protein at ambient temperature”.
